Legend:
Aqueous solubility = conditions: aqueous solubility
[1] = Microsomal metabolic stability, rat liver microsomes (RLM); conditions: rat liver microsomes

Row | Molecule | Solub. (Aqueous solubility) | t1/2 (min, RLM) [1] | PAMPA | Solub. (μg/ml) (Aqueous solubility)
1 | O=C(NCCCn1c(=O)c2cc(F)ccc2n2c(=S)[nH]nc12)c1ccc(Cn2ccnc2)cc1 [compound 119, 4-((1H-imidazol-1-yl)methyl)-N-(3-(7-fluoro-5-oxo-1-thioxo-1,2-dihydro-[1,2,4]triazolo[4,3-a]quinazolin-4(5H)-yl)propyl)benzamide] | 13.7 µg/mL | >30 min | – | –
2 | O=c1c2cc(F)ccc2n2c(=S)[nH]nc2n1CCCc1ccccc1 [compound 53] | <1 µg/mL | 8.8 min | – | –
3 | O=c1c2cc(F)ccc2n2c(=S)[nH]nc2n1CCP(=O)(O)O [compound 77] | >51 µg/mL | – | – | –
4 | O=c1c2ccccc2n2c(=S)[nH]nc2n1CCC(F)(F)F [compound 27] | 23.3 µg/mL | >30, min | 82 ×10⁻⁶ cm/s | –
5 | CC(C)NC(=O)CCn1c(=O)c2cc(Cl)ccc2n2c(=S)[nH]nc12 [compound 57] | 8.1 µg/mL | – | – | –
6 | Nc1nnc2n(CCc3ccccc3)c(=O)c3cc(F)ccc3n12 [compound 16] | 2.2 µg/mL | 29.4 min | 885 ×10⁻⁶ cm/s | –
7 | CC(C)CNC(=O)CCn1c(=O)c2ccccc2n2c(=S)[nH]nc12 [compound 32] | 30.8 µg/mL | – | – | –
8 | CC(C)(C)OC(=O)CC[C@H](NC(=O)OC(C)(C)C)C(=O)NCCCn1c(=O)c2cc(F)ccc2n2c(=S)[nH]nc12 [Cmpd 103] | – | – | 744 ×10⁻⁶ cm/s | –
9 | CCn1c(=O)c2cc(F)ccc2n2c(=S)[nH]nc12 [compound 63] | >39 µg/mL | >30 min | – | –
10 | O=C(Cc1ccc(F)cc1)NCCCn1c(=O)c2cc(F)ccc2n2c(=S)[nH]nc12 [compound 123, N-(3-(7-fluoro-5-oxo-1-thioxo-1,2-dihydro-[1,2,4]triazolo[4,3-a]quinazolin-4(5H)-yl)propyl)-2-(4-fluorophenyl)acetamide] | – | 26.3 min | – | –
11 | O=c1c2ccccc2n2c(=O)[nH]nc2n1CCc1ccccc1 [compound 15] | <1 µg/mL | – | – | –
12 | CC(C)(C)OC(=O)NCCCCCC(=O)NCCCn1c(=O)c2cc(F)ccc2n2c(=S)[nH]nc12 [Cmpd 101] | – | – | 405 ×10⁻⁶ cm/s | –
13 | O=C(Cc1cccc(C(F)(F)F)c1)NCCCn1c(=O)c2cc(F)ccc2n2c(=S)[nH]nc12 [compound 132, N-(3-(7-fluoro-5-oxo-1-thioxo-1,2-dihydro-[1,2,4]triazolo[4,3-a]quinazolin-4(5H)-yl)propyl)-2-(3-(trifluoromethyl)phenyl)acetamide] | 26.8 µg/mL | 17.3 min | – | –
14 | CCCn1c(=O)c2ccccc2n2c(=S)n(CN(CC)CC(C)C)nc12 [compound 38] | 8.7 µg/mL | – | – | –
15 | O=c1c2cc(F)ccc2n2c(=S)[nH]nc2n1CCc1cccnc1 [Cmpd 84] | – | – | <1 ×10⁻⁶ cm/s | –
16 | CC(=O)NCCn1c(=O)c2cc(F)ccc2n2c(=S)[nH]nc12 [compound 72] | >47 µg/mL | >30 min | – | –
17 | CS(=O)(=O)NCCCn1c(=O)c2cc(F)ccc2n2c(=S)[nH]nc12 [compound 76] | 34 µg/mL | >30 min | – | –
18 | CCCn1c(=O)c2ccccc2n2c(=S)n(CN(C)C3CC3)nc12 [compound 35] | – | – | – | Insol.
19 | CN(C)c1ccc2c(c1)c(=O)n(CCc1ccccc1)c1n[nH]c(=S)n21 [Cmpd 45] | – | – | 356 ×10⁻⁶ cm/s | –
20 | 4-(3-aminopropyl)-9-fluoro-1-thioxo-2,4-dihydro-[1,2,4]triazolo[4,3-a]quinazolin-5(1H)-one [compound 69] | – | >30 min | – | –
21 | Cc1nnc2n(CCc3ccccc3)c(=O)c3cc(F)ccc3n12 [compound 17] | 11.0 µg/mL | 10.7 min | – | –
22 | CC(C)n1c(=O)c2ccccc2n2c(=S)[nH]nc12 [compound 26] | 19.5 µg/mL | – | – | –
23 | CC(C)OCCCn1c(=O)c2cc(Cl)ccc2n2c(=S)[nH]nc12 [compound 56] | 8.6 µg/mL | – | – | –
24 | O=C(Cc1ccc(O)cc1)NCCCn1c(=O)c2cc(F)ccc2n2c(=S)[nH]nc12 [compound 127, N-(3-(7-fluoro-5-oxo-1-thioxo-1,2-dihydro-[1,2,4]triazolo[4,3-a]quinazolin-4(5H)-yl)propyl)-2-(4-hydroxyphenyl)acetamide] | 31.0 µg/mL | >30 min | – | –
25 | NCCn1c(=O)c2cc(F)ccc2n2c(=S)[nH]nc12 [compound 67] | >41 µg/mL | >30 min | – | –

The next lines start with the values.

Row | Solub. (Aqueous solubility) | t1/2 (min, RLM) [1] | PAMPA | Solub. (μg/ml) (Aqueous solubility) | Molecule
26 | 37.5 µg/mL | >30 min | – | – | O=C(CC1CCNCC1)NCCCn1c(=O)c2cc(F)ccc2n2c(=S)[nH]nc12 [compound 116]
27 | 42.4 µg/mL | >30 min | 3.0 ×10⁻⁶ cm/s | – | NS(=O)(=O)CCCC(=O)NCCCn1c(=O)c2cc(F)ccc2n2c(=S)[nH]nc12 [compound 107]
28 | <1 µg/mL | – | 8.0 ×10⁻⁶ cm/s | – | O=C(NCCCn1c(=O)c2cc(F)ccc2n2c(=S)[nH]nc12)C1CCOCC1 [compound 115]
29 | 36.1 µg/mL | >30 min | – | – | NCCOCCOCCOCCC(=O)NCCCn1c(=O)c2cc(F)ccc2n2c(=S)[nH]nc12 [compound 98]
30 | >60 µg/mL | >30 min | – | – | O=C(NCCCn1c(=O)c2cc(F)ccc2n2c(=S)[nH]nc12)C1CCCCN1 (stereo not shown) [compound 112]
31 | >59 µg/mL | >30 min | – | – | CCOP(=O)(CCn1c(=O)c2cc(F)ccc2n2c(=S)[nH]nc12)OCC [compound 78]
32 | 1.1 µg/mL | >30 min | – | – | CC(C)(C)[C@H]1CC[C@H](C(=O)NCCCn2c(=O)c3cc(F)ccc3n3c(=S)[nH]nc23)CC1 [compound 109]
33 | 29.6 µg/mL | >30 min | – | – | O=C(NCCCn1c(=O)c2cc(F)ccc2n2c(=S)[nH]nc12)C1CCCNC1 (stereo not shown) [compound 113]
34 | 17.8 µg/mL | >30 min | – | – | CN1CCCC1CCn1c(=O)c2cc(F)ccc2n2c(=S)[nH]nc12 (stereo not shown) [compound 87]
35 | >54 µg/mL | >30 min | – | – | CN1CCN(CCn2c(=O)c3cc(F)ccc3n3c(=S)[nH]nc23)CC1 [compound 91]
36 | >60 µg/mL | >30 min | – | – | O=C(NCCCn1c(=O)c2cc(F)ccc2n2c(=S)[nH]nc12)C1CCNCC1 [compound 114]
37 | 3.0 µg/mL | 22.8 min | – | – | O=c1c2cc(F)ccc2n2c(=S)[nH]nc2n1CCc1ccccc1Cl [compound 81]
38 | 31.8 µg/mL | >30 min | – | – | NCCCCCC(=O)NCCCn1c(=O)c2cc(F)ccc2n2c(=S)[nH]nc12 [compound 100]
39 | 20.4 µg/mL | 25.1 min | – | – | CC(C)(C)OC(=O)CC[C@@H](NC(=O)OC(C)(C)C)C(=O)NCCCn1c(=O)c2cc(F)ccc2n2c(=S)[nH]nc12 [compound 102]
40 | 38.8 µg/mL | >30 min | – | – | NC1CCC(C(=O)NCCCn2c(=O)c3cc(F)ccc3n3c(=S)[nH]nc23)CC1 (stereo not shown) [compound 111]
41 | 15 µg/mL | – | 229 ×10⁻⁶ cm/s | – | CC(C)(C)OC(=O)N1CC(CCn2c(=O)c3cc(F)ccc3n3c(=S)[nH]nc23)C1 [compound 86]
42 | 20.5 µg/mL | 26.3 min | – | – | CC(C)(C)OC(=O)N1CCN(CCn2c(=O)c3cc(F)ccc3n3c(=S)[nH]nc23)CC1 [compound 92]

Source: patent publication US20230365568A1, “PLK1 POLO BOX DOMAIN INHIBITORS AND METHOD OF TREATING CANCER” (The United States of America,as represented by the …, priority 2020, published 2023)
